The source of these data is patent US10221163B2 (priority 2015, dated 2019).

The term IC50 denotes the midpoint of a concentration-inhibition curve.

Structures are written as SMILES. Read-outs that look alike come from different tables or passages of the source.

The subject of data set [1] is Pseudomonas aeruginosa efflux+ (MB9798), IMP-1. It is filed as cell-based. More on the design: Concentration of metallo-β-lactamase inhibitor which restores susceptibility of efflux + (MB9798) strain to imipenem: unit not given here. The settings on record: C, D serine β-lactamase inhibitor closely related to relebactam; for P. aeruginosa expressing IMP-1, efflux + (MB9798) MITC95: concentration restoring susceptibility to imipenem at 2 μg/mL in the presence of a class A. Put shortly:
(§1)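 Microbroth MIC tests in PAO1-background strains with fixed imipenem and/or ceftazidime, usually at the CLSI breakpoint, plus fixed class A/C β-lactamase inhibitor against AmpC. MBL inhibitor titrated; concentration restoring susceptibility recorded and compared as fold difference between efflux+ MB9798 and efflux− MB9799.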

In the next data set the target is IMP-1 (Serratia marcescens, UniProt P52699). Briefly: biochemical. The settings on record: fluorescence assay, CCF2-FA substrate, 2 pM enzyme, 2 hours at 25° C.; read-out: IMP-1 IC50. It is filed as biochemical. Put shortly: (§2)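 Inhibitor was mixed with the metallo-β-lactamase and CCF2-FA. After 2 hours at 25° C, fluorescence of the coumarin–fluorescein cephalosporin substrate was read. IC50 was calculated with a 4-parameter fit.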

The next data set deals with NDM-1 (Klebsiella pneumoniae, UniProt C7C422). Put plainly: biochemical. It is filed as biochemical. Particulars: fluorescence assay, CCF2-FA substrate, 1 pM enzyme, 2 hours at 25° C.; read-out: NDM-1 IC50. An outline of the steps:
as §2

The subject of data set [2] is Serratia marcescens expressing IMP-1 (CL5741). It is filed as cell-based. The settings on record: for Serratia marcescens expressing IMP-1 (CL5741) MITC95: with imipenem 1 μg/ml, 95% inhibition of bacterial growth; for Serratia marcescens MITC95: IMP-1 strain CL5741, with imipenem 1 μg/ml, 95% inhibition of growth. An outline of the steps:
(§3)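 Imipenem 1 μg/ml + inhibitor; MBL-expressing clinical strains in 1.1×CAMHB, inoculum from saline suspension diluted 1:100; 35° C, 22–24 h; absorbance read-out.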

Data set [3] concerns Klebsiella pneumoniae expressing VIM-1 (IHMA599644). Type of data set: cell-based. Particulars: for Klebsiella pneumoniae expressing VIM-1 (IHMA599644) MITC95: with imipenem 1 μg/ml, 95% inhibition of bacterial growth; for Klebsiella pneumoniae MITC95: VIM-1 strain IHMA599644, with imipenem 1 μg/ml, 95% inhibition of growth. An outline of the steps: as §3
The subject of data set [4] is Escherichia coli expressing NDM-1 (CLB30005, CLB30016). It is filed as cell-based. Particulars: with imipenem 1 μg/ml; for Escherichia coli expressing NDM-1 (CLB30016) MITC95: 95% inhibition of bacterial growth; for Escherichia coli MITC95: NDM-1 strain, 95% inhibition of growth. An outline of the steps:
as §3

A further data set concerns the target VIM-1 (Pseudomonas aeruginosa (strain ATCC 15692 / DSM 22644 / CIP 104116 / JCM 14847 / LMG 12228 / 1C / PRS 101 / PAO1), UniProt A0A0F7KYQ8). Put plainly: biochemical. Particulars: CCF2-FA substrate, 30 pM enzyme, 2 hours at 25° C. Put shortly:
as §2

Data set [5] has as its system Pseudomonas aeruginosa efflux− (MB9799), IMP-1. Type of data set: cell-based. Particulars: C, D serine β-lactamase inhibitor closely related to relebactam; for P. aeruginosa expressing IMP-1, efflux − (MB9799) MITC95: concentration restoring susceptibility to imipenem at 2 μg/mL in the presence of a class A. Put shortly: as §1
For data set [6], the system named is Pseudomonas aeruginosa MB9798 vs MB9799. An outline of the steps:
as §1

Setting [7] is: ratio MITC95 PA_9798/MITC95 PA_9799.
[8] abbreviates: fluorescence assay, read-out: VIM-1 IC50.

NDM-1, sequence (C7C422 whole entry, looked up, species assumed): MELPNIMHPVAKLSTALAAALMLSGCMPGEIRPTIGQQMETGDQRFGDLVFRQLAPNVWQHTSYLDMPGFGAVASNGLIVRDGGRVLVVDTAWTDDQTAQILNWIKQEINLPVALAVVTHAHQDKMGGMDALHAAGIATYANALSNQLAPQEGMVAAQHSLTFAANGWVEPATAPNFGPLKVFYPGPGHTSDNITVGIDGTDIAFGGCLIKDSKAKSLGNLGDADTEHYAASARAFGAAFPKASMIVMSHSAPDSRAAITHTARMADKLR
IMP-1, sequence (P52699 whole entry, looked up, species assumed): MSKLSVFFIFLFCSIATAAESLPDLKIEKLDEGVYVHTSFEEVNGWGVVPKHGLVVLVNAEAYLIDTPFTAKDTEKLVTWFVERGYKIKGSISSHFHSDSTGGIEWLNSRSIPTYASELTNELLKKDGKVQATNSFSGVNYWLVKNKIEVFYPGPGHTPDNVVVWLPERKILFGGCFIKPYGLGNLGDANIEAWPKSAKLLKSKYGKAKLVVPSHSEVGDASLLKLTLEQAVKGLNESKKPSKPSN

As to `Nc1nc2c(-c3ccc(S(=O)(=O)NCC4COCCN4)c(S(N)(=O)=O)c3-c3nn[nH]n3)cccc2[nH]1` (stereo not drawn) [Example 206, 4-(2-amino-1H-benzo[d]imidazol-4-yl)-N1-(morpholin-3-ylmethyl)-3-(2H-tetrazol-5-yl)benzene-1,2-disulfonamide], in data set [1], the “P. aeruginosa expressing IMP-1, efflux + (MB9798) MITC95” value amounted to 3.125 µM. The IC50 on IMP-1 came out at 0.498 nM; at NDM-1, 0.0729 nM; against VIM-1 (VIM-1 IC50, fluorescence assay), 0.211 nM. Also, the “Serratia marcescens expressing IMP-1 (CL5741) MITC95” value in data set [2] turned out to be 1.563 µM. The “Klebsiella pneumoniae expressing VIM-1 (IHMA599644) MITC95” value in [3] amounted to 1.563 µM. For the same molecule, in data set [4], the “Escherichia coli expressing NDM-1 (CLB30016) MITC95” value was 0.3906 µM. For the same molecule, the “P. aeruginosa expressing IMP-1, efflux − (MB9799) MITC95” value in [5] worked out at 1.563 µM. Moreover, the Efflux ratio in data set [6] (setting [7]) came out at 2.00.
Turning to `NCC(CN)NS(=O)(=O)c1ccc(-c2cccc3ccc(N)nc23)c(-c2nn[nH]n2)c1S(N)(=O)=O` [Example 430], the “Concentration of metallo-β-lactamase inhibitor which restores susceptibility of efflux + (MB9798) strain to imipenem” value in [1] (efflux+ MB9798, imipenem at 2 μg/mL, in the presence of a class A) came out at 1.563. Also, the IC50 came out at 0.102 nM on IMP-1, 0.0325 nM on NDM-1 and 0.103 nM on VIM-1 (setting [8]). Besides, the “Serratia marcescens MITC95” value in data set [2] is 1.563 µM. Besides, in data set [3], the “Klebsiella pneumoniae MITC95” value amounted to 1.563 µM. Further, the “Escherichia coli MITC95” value in data set [4] is 1.172 µM. In addition, the “Concentration of metallo-β-lactamase inhibitor which restores susceptibility of efflux − (MB9799) strain to imipenem” value in data set [5] (efflux− MB9799, imipenem at 2 μg/mL, in the presence of a class A) is 1.563. Moreover, the Efflux ratio in data set [6] (fold difference between efflux+ (MB9798) and efflux− (MB9799) strains, imipenem at 2 μg/mL) is 1.00.
Consider `Nc1ccc2cccc(-c3ccc(S(=O)(=O)N[C@@H]4CNC[C@@H]4N)c(S(N)(=O)=O)c3-c3nn[nH]n3)c2n1` [Example 319, N^1-((3R,4S)-4-aminopyrrolidin-3-yl)-4-(2-aminoquinolin-8-yl)-3-(2H-tetrazol-5-yl)benzene-1,2-disulfonamide], for which the “P. aeruginosa expressing IMP-1, efflux + (MB9798) MITC95” value in data set [1] was found to be 0.7813 µM. The results for the IC50 at IMP-1, at NDM-1 and on VIM-1 (setting [8]) were 0.265 nM, 0.0483 nM and 0.206 nM, respectively. The “Serratia marcescens MITC95” value in [2] came to 1.563 µM. The “Klebsiella pneumoniae MITC95” value in data set [3] turned out to be 1.563 µM. The “Escherichia coli MITC95” value in data set [4] came out at 1.563 µM. For the same molecule, the “P. aeruginosa expressing IMP-1, efflux − (MB9799) MITC95” value in data set [5] stood at 0.7813 µM. The Efflux ratio in [6] (setting [7]) came to 1.00.
In the case of `Nc1nc2c(-c3ccc(S(=O)(=O)NCCC(N)C(F)(F)F)c(S(N)(=O)=O)c3-c3nnn[nH]3)cccc2s1` (stereo not drawn) [Example 49, 4-(2-amino-1,3-benzothiazol-4-yl)-N1-(3-amino-4,4,4-trifluorobutyl)-3-(1H-tetrazol-5-yl)benzene-1,2-disulfonamide], the “P. aeruginosa expressing IMP-1, efflux + (MB9798) MITC95” value in data set [1] was 50 µM. Besides, the IC50 on IMP-1 came to 0.413 nM; at NDM-1, 0.0673 nM; on VIM-1 (setting [8]), 0.328 nM. The “Serratia marcescens expressing IMP-1 (CL5741) MITC95” value in [2] came to 12.5 µM. In [3], the “Klebsiella pneumoniae expressing VIM-1 (IHMA599644) MITC95” value worked out at 25 µM. Besides, the “Escherichia coli expressing NDM-1 (CLB30016) MITC95” value in data set [4] turned out to be 25 µM. The “P. aeruginosa expressing IMP-1, efflux − (MB9799) MITC95” value in [5] amounted to 6.25 µM. Further, in data set [6] (setting [7]), the Efflux ratio is on record as 8.00.
As for `Cn1cnc(CNS(=O)(=O)c2ccc(-c3cccc4sc(N)nc34)c(-c3nnn[nH]3)c2S(N)(=O)=O)n1` [Example 20, 4-(2-amino-1,3-benzothiazol-4-yl)-N^1-[(1-methyl-1H-1,2,4-triazol-3-yl)methyl]-3-(1H-tetrazol-5-yl)benzene-1,2-disulfonamide], in [1], the “P. aeruginosa expressing IMP-1, efflux + (MB9798) MITC95” value amounted to 6.25 µM. The IC50 is 0.817 nM at IMP-1, 0.0973 nM on NDM-1 and 0.494 nM on VIM-1 (setting [8]). Besides, the “Serratia marcescens expressing IMP-1 (CL5741) MITC95” value in data set [2] was determined as 6.25 µM. The “Klebsiella pneumoniae expressing VIM-1 (IHMA599644) MITC95” value in data set [3] is 25 µM. Further, the “Escherichia coli expressing NDM-1 (CLB30016) MITC95” value in data set [4] came to 25 µM. In [5], the “P. aeruginosa expressing IMP-1, efflux − (MB9799) MITC95” value was determined as 6.25 µM. In addition, in data set [6] (setting [7]), the Efflux ratio turned out to be 1.00.
Regarding `CC[C@@H](CN)NS(=O)(=O)c1ccc(-c2cccc3[nH]c(N)nc23)c(-c2nn[nH]n2)c1S(N)(=O)=O` [Example 264, (S)-4-(2-amino-1H-benzo[d]imidazol-4-yl)-N1-(1-aminobutan-2-yl)-3-(2H-tetrazol-5-yl)benzene-1,2-disulfonamide], the “P. aeruginosa expressing IMP-1, efflux + (MB9798) MITC95” value in [1] amounted to 3.125 µM. Further, the figures for the IC50 at IMP-1, on NDM-1 and on VIM-1 (setting [8]) were 5.93 nM, 0.2 nM and 0.47 nM, respectively. For the same molecule, the “Serratia marcescens MITC95” value in data set [2] is 1.563 µM. The “Klebsiella pneumoniae MITC95” value in data set [3] stood at 1.563 µM. The “Escherichia coli MITC95” value in data set [4] was determined as 0.7813 µM. The “P. aeruginosa expressing IMP-1, efflux − (MB9799) MITC95” value in data set [5] worked out at 0.7813 µM. In addition, the Efflux ratio in data set [6] (setting [7]) stood at 4.00.
With `CNC(=O)CNS(=O)(=O)c1ccc(-c2cccc3sc(N)nc23)c(-c2nnn[nH]2)c1S(N)(=O)=O` [Example 23, N^2-{[4-(2-amino-1,3-benzothiazol-4-yl)-2-sulfamoyl-3-(1H-tetrazol-5-yl)phenyl]sulfonyl}-N-methylglycinamide], in data set [1], the “P. aeruginosa expressing IMP-1, efflux + (MB9798) MITC95” value came to 3.125 µM. Moreover, the IC50 on IMP-1 worked out at 0.294 nM; on NDM-1, 0.0511 nM; at VIM-1 (VIM-1 IC50, fluorescence assay) it was 0.224 nM. Further, in data set [2], the “Serratia marcescens expressing IMP-1 (CL5741) MITC95” value was 6.25 µM. Also, the “Klebsiella pneumoniae expressing VIM-1 (IHMA599644) MITC95” value in [3] was 12.5 µM. In addition, the “Escherichia coli expressing NDM-1 (CLB30016) MITC95” value in data set [4] was 25 µM. Moreover, the “P. aeruginosa expressing IMP-1, efflux − (MB9799) MITC95” value in data set [5] came out at 3.125 µM. The Efflux ratio in data set [6] (setting [7]) is listed as 1.00.
In the case of `CN(CCc1ccncc1)S(=O)(=O)c1ccc(-c2cccc3sc(N)nc23)c(-c2nnn[nH]2)c1S(N)(=O)=O.O=C(O)C(F)(F)F` [Example 100, 4-(2-(4-(2-aminobenzo[d]thiazol-4-yl)-N-methyl-2-sulfamoyl-3-(1H-tetrazol-5-yl)phenylsulfonamido)ethyl)pyridin-1-ium 2,2,2-trifluoroacetate], in [1], the “P. aeruginosa expressing IMP-1, efflux + (MB9798) MITC95” value turned out to be 200 µM. Also, the IC50 on IMP-1 is 3.26 nM; at NDM-1, 3.88 nM; against VIM-1 (VIM-1 IC50, fluorescence assay) it was 12.6 nM. Also, in data set [2], the “Serratia marcescens expressing IMP-1 (CL5741) MITC95” value was determined as 25 µM. Also, the “Klebsiella pneumoniae expressing VIM-1 (IHMA599644) MITC95” value in data set [3] came out at 200 µM. Besides, the “Escherichia coli expressing NDM-1 (CLB30016) MITC95” value in data set [4] came out at 50 µM. In addition, in data set [5], the “P. aeruginosa expressing IMP-1, efflux − (MB9799) MITC95” value was found to be 6.25 µM. Further, the Efflux ratio in data set [6] (setting [7]) was determined as 32.00.
With `NCCNS(=O)(=O)c1ccc(-c2cccc(NC[C@@H](N)CO)c2)c(-c2nn[nH]n2)c1S(N)(=O)=O` [Example 349, (R)-3′-((2-amino-3-hydroxypropyl)amino)-N4-(2-aminoethyl)-2-(2H-tetrazol-5-yl)-[1,1′-biphenyl]-3,4-disulfonamide], the “P. aeruginosa expressing IMP-1, efflux + (MB9798) MITC95” value in data set [1] was determined as 1.563 µM. For the same molecule, the IC50 was determined as 5.65 nM at IMP-1, 1.62 nM at NDM-1 and 0.433 nM at VIM-1 (setting [8]). Besides, the “Serratia marcescens MITC95” value in [2] worked out at 1.563 µM. Moreover, the “Klebsiella pneumoniae MITC95” value in data set [3] is 1.563 µM. In [4], the “Escherichia coli MITC95” value was determined as 1.563 µM. In addition, the “P. aeruginosa expressing IMP-1, efflux − (MB9799) MITC95” value in data set [5] came out at 0.7813 µM. In addition, the Efflux ratio in data set [6] (setting [7]) is 2.00.
